5 molecules from patent US20240294499A1, “TARGETED PROTEIN DEGRADATION USING BIFUNCTIONAL COMPOUNDS THAT BIND UBIQUITIN LIGASE AND TARGET MCL-1 PROTEIN” (Captor Therapeutics S.A., priority 2021, published 2024) can be followed below.

The target in one data set is MCL-1 protein (Homo sapiens, UniProt Q07820). Briefly: OPM-2 cells: MCL-1 protein degradation, Western blot. It counts as cell-based. The arrangement: endogenous in cells; host or cells: OPM-2. The settings on record: OPM-2 cell line, 6 h treatment, 100 nM compound, vs DMSO. From the text: The effect of various compounds of the invention and the reference compounds on MCL-1 protein degradation in the OPM-2 cell line was investigated, using the degradation assay protocol below.
OPM-2 cells were maintained in RPMI-1640 medium, supplemented with penicillin/streptomycin and 10% Fetal Bovine Serum (FBS). During the treatment, FBS concentration was reduced to 1%.
Compound stocks were pre-diluted in DMSO and added directly to the cells growth medium (final DMSO concentration: 0.5%).
OPM-2 cells were collected, centrifuged (250 rcf, 5 min), resuspended in a growth medium containing 1% FBS and counted. The cell suspension was then adjusted to 1×10^6 cell/ml using a growth medium containing 1% FBS. Afterwards, 0.5×10^6 cells were seeded on 24-well plates in 0.5 mL of medium per well. Immediately after seeding cells, compounds in appropriate concentrations were added to the cell culture medium.
Following the treatment with the compounds, cells were collected from the plates and suspended in a lysis buffer (2% SDS, 50 mM Tris, pH 8.0, 100 U/ml Pierce Universal Nuclease for Cell Lysis, complete EDTA-free Protease Inhibitor Cocktail) and incubated on ice for 45 min. The amount of protein was determined via BCA assay, and the equal quantity of each sample was loaded on the precast gel for the protein separation. Following the electrophoresis and transfer to the membrane, the membrane was stained with Ponceau (0.1% (w/v) Ponceau in 5% acetic acid). After total protein detection, the stain was washed out using TBST. After the antibody staining for MCL-1 and α-tubulin, the membranes were washed and signals developed.
Densitometric values for MCL-1 were normalized to total protein level (the Ponceau Staining). [%] of protein reduction is calculated in comparison to the cells treated with DMSO, which stand for 0%.
The results for the 6 h treatment with 100 nM compounds are shown in Table 9, using the following labels: • <30% for 0-29% of MCL-1 protein reduction, • ≥30% for 30-49% of MCL-1 protein reduction, • ≥50% for 50-100% of MCL-1 protein reduction.

Another data set deals with MV-4-11 cells. The data set is described as follows: Cell viability assay (CellTiter-Glo), MV-4-11. The data set is classed as cell-based. The settings on record: Homo sapiens, MV4-11, 24 hours incubation, 1% FBS, read-out: Average pIC50 by molecule MV-4-11 (converted). An outline of the steps:
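OPM-2, MV-4-11 and ARH-77 cells were grown in medium with 1% FBS and treated with compound in 1/3 dilutions from 30 uM (9–12 points, 0.5% DMSO). Viability was read by CellTiter-Glo luminescence after 24 hours and normalized to DMSO control.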
A general note: In ATP-based viability assays light output follows the ATP content of the culture.

Data set [1] concerns hiPSC-CM (iCELL Cardiomyocytes). The data set is described as follows: Cardiac safety: hiPSC-CM cell viability assay (CTG). The data set is classed as cell-based, human. The settings on record: for IC50: Homo sapiens, Cardiomyocyte, 336 h, viability, CTG assay, treatment until day 14, read-out: Average pIC50 by molecule hiPSC-CM (converted); for activity in viability assay in cardiomyocytes: as opposed to reference compounds MIK665 and AZD5991. From the text:
The effect of various compounds of the invention and a reference compounds AZD5991 and MIK665 on cardiac safety was investigated by the evaluation of viability with CTG assay (Promega; cat #G7572) in iCELL™ Cardiomyocytes from FUJIFILM Cellular Dynamics (Catalog number: 11713).
Cells were thawed, counted using an automated cell counter (TC20, Bio-Rad) and seeded in 96 well plates (Greiner-BioOne; 655098) previously coated with 0.1% gelatin (Sigma-Aldrich; G1890) using Plating Medium (#M1001) following the instructions of the iCELL cardiomyocytes User Guide. Forty ml of Plating Medium was used to equally distribute the cells in four 96 well plates. Cells were then placed in the incubator at 37° C., 5% CO2 and left undisturbed for 48 hours. Compounds were serially diluted in DMSO and then further diluted to final assay concentration using maintenance medium (#M1003). Final DMSO concentration was 0.5%. Forty eight hours after plating, non-adherent cells and debris were washed as described in the User Guide. Plating medium was then replaced with maintenance medium containing diluted compounds or DMSO (as control). Medium was then changed every 2 days with fresh medium containing compounds or DMSO until the end of the treatment. On day 14, only medium without compounds was used immediately before the CTG assay. Luminescence signal was measured using a CLARIOstar Plus Multi-Mode Microplate Reader (574-590 nm).

A value given as a limit tells only on which side of the number the result lay.

Chain of MCL-1 protein (Q07820 whole entry): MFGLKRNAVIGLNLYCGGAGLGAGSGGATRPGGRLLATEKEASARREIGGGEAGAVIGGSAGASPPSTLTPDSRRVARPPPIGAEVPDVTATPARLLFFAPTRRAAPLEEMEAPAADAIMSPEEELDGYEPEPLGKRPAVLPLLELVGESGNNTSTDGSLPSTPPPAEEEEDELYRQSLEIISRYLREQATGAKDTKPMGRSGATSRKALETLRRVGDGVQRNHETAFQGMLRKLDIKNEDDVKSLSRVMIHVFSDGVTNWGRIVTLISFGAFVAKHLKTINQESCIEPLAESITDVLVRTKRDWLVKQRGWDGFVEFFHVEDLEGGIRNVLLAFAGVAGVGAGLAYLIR

In the case of `Cc1nn(C)c(C)c1-c1c(F)ccc2c(CCCOc3cccc4cc(F)ccc34)c(C(=O)O)n(CCN3CCN(C(=O)COc4cccc5c4C(=O)N(C4CCC(=O)NC4=O)C5=O)CC3)c12` (stereo not drawn) [Compound 215, 1-{2-[4-(2-{[2-(2,6-dioxopiperidin-3-yl)-1,3-dioxo-2,3-dihydro-1H-isoindol-4-yl]oxy}acetyl)piperazin-1-yl]ethyl}-6-fluoro-3-{3-[(6-fluoronaphthalen-1-yl)oxy]propyl}-7-(1,3,5-trimethyl-1H-pyrazol-4-yl)-1H-indole-2-carboxylic acid], the “Western blot, % of protein reduction” value on MCL-1 protein is at least 50%. The IC50 in the data set on MV-4-11 cells is at most 0.1 µM.
For `Cc1nn(C)c(C)c1-c1c(Cl)ccc2c(CCCOc3cccc4cc(F)ccc34)c(C(=O)O)n(CCN3CCN(C(=O)Cn4c(C)nc5c(C(=O)NC6CCC(=O)NC6=O)cccc54)CC3)c12` (stereo not drawn) [Compound 268, 6-chloro-1-{2-[4-(2-{4-[(2,6-dioxopiperidin-3-yl)carbamoyl]-2-methyl-1H-1,3-benzodiazol-1-yl}acetyl)piperazin-1-yl]ethyl}-3-{3-[(6-fluoronaphthalen-1-yl)oxy]propyl}-7-(1,3,5-trimethyl-1H-pyrazol-4-yl)-1H-indole-2-carboxylic acid], the “Western blot, % of protein reduction” value on MCL-1 protein is listed as at least 50%. In addition, in data set [1], the IC50 was above 39.8 µM and the “activity in viability assay in cardiomyocytes” value (“activity in viability assay” for short) is “much lower activity”.
As to `Cc1nn2c(c1-c1c(Cl)ccc3c(CCCOc4cccc5cc(F)ccc45)c(C(=O)O)n(CCN4CCN(C(=O)COc5cccc6c5CN(C5CCC(=O)NC5=O)C6=O)CC4)c13)COCC2` (stereo not drawn) [Compound 346, 6-Chloro-1-(2-(4-(2-((2-(2,6-dioxopiperidin-3-yl)-1-oxoisoindolin-4-yl)oxy)acetyl)piperazin-1-yl)ethyl)-3-(3-((6-fluoronaphthalen-1-yl)oxy)propyl)-7-(2-methyl-6,7-dihydro-4H-pyrazolo[5,1-c][1,4]oxazin-3-yl)-1H-indole-2-carboxylic acid], on MCL-1 protein, the “Western blot, % of protein reduction” value is recorded as at least 50%. Further, the figures for the IC50 (in data set [1]; in the data set on MV-4-11 cells) were 10 µM and at most 0.1 µM, respectively. For the same molecule, the “activity in viability assay” value in data set [1] is recorded as “much lower activity”.
Take `Cc1nn(C)c(C)c1-c1c(Cl)ccc2c(CCCOc3cccc4ccccc34)c(C(=O)O)n(CCN3CCN(C(=O)COc4cccc5c4C(=O)N(C4CCC(=O)NC4=O)C5=O)CC3)c12` (stereo not drawn) [Compound 204, 6-chloro-1-(2-(4-(2-((2-(2,6-dioxopiperidin-3-yl)-1,3-dioxoisoindolin-4-yl)oxy)acetyl)piperazin-1-yl)ethyl)-3-(3-(naphthalen-1-yloxy)propyl)-7-(1,3,5-trimethyl-1H-pyrazol-4-yl)-1H-indole-2-carboxylic acid]: the “Western blot, % of protein reduction” value at MCL-1 protein was at least 50%. Besides, the IC50 with MV-4-11 cells is at most 0.1 µM.
On to `Cc1nn(C)c(C)c1-c1c(Cl)ccc2c(CCCOc3cccc4cc(F)ccc34)c(C(=O)O)n(CCN3CCN(C(=O)COc4cccc5c4CN(C4CCC(=O)NC4=O)C5=O)CC3)c12` (stereo not drawn) [Compound 220, 6-chloro-1-{2-[4-(2-{[2-(2,6-dioxopiperidin-3-yl)-1-oxo-2,3-dihydro-1H-isoindol-4-yl]oxy}acetyl)piperazin-1-yl]ethyl}-3-{3-[(6-fluoronaphthalen-1-yl)oxy]propyl}-7-(1,3,5-trimethyl-1H-pyrazol-4-yl)-1H-indole-2-carboxylic acid], for which, at MCL-1 protein, the “Western blot, % of protein reduction” value is on record as at least 50%. Also, in data set [1], the IC50 is 10 µM and the “activity in viability assay” value is “much lower activity”. The IC50 with MV-4-11 cells was at most 0.0316 µM.
